The record followed here is patent US10618903B2, “Heteroaryl substituted aminopyridine compounds” (BRISTOL-MYERS SQUIBB COMPANY, priority 2015, dated 2020).

The target of test [1] is IRAK4 (Homo sapiens (Human), UniProt Q9NWZ3). Kind of test: IRAK4 Inhibition Assay. It is filed as biochemical. To be noted: ATP 500 μM; IRAK4 0.6 nM. The gist of the method:
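Readout: electrophoretic (LabChip) separation of fluorescent peptide substrate from phosphorylated product after EDTA quench. Reactions ran 60 min at room temperature with 0.6 nM IRAK4, 1.5 μM peptide and 500 μM ATP; inhibition referenced to no-enzyme (100%) and vehicle (0%) controls.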

In test [2] the test system is IL-6 levels in human whole blood stimulated with a TLR2 agonist. The test can be described thus: IRAK4 Whole Blood Assay (lipoteichoic acid/TLR2-stimulated IL-6). It is filed as cell-based. To be noted: lipoteichoic acid 10 μg/mL, IL-6 readout. Summed up: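 IL-6 was quantified by cytometric bead assay in supernatants of human blood (ACD-A) stimulated for 5 h with lipoteichoic acid at 10 μg/mL final. Compound exposure preceded stimulation for 60 min at 37 °C, 5% CO2.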

IRAK4, sequence (Q9NWZ3 whole entry): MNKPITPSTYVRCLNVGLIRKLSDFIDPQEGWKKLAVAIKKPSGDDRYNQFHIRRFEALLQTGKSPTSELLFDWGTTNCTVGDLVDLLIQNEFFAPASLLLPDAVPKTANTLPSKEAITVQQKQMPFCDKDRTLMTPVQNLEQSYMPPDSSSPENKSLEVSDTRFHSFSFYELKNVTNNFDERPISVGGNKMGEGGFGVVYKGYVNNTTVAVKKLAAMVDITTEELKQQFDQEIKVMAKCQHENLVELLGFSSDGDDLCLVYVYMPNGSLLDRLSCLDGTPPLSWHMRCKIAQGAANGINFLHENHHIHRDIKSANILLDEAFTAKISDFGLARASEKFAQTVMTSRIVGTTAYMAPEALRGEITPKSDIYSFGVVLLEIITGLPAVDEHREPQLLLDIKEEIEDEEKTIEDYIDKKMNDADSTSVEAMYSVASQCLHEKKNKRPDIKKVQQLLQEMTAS

Regarding `CC(C)(O)[C@H](F)CNC(=O)c1cnc(-c2cnn3cc(C#N)cnc23)cc1Nc1cccc(C(N)=O)c1` [Example 111, (R)-4-((3-carbamoylphenyl)amino)-6-(6-cyanopyrazolo[1,5-a]pyrimidin-3-yl)-N-(2-fluoro-3-hydroxy-3-methylbutyl)nicotinamide], in test [1], the IC50 (in general, the concentration at which inhibition is half-maximal) worked out at 3 nM. The response in test [2] (Homo sapiens) was half-maximal at 900 nM (EC50).
In the same order, the values of `CC(C)(O)[C@H](F)CNC(=O)c1cnc(-c2cnn3cc(C#N)cnc23)cc1N[C@@H]1CCN(c2ncc(F)cn2)C1` [Example 109, 6-(6-cyanopyrazolo[1,5-a]pyrimidin-3-yl)-N—((R)-2-fluoro-3-hydroxy-3-methylbutyl)-4-(((R)-1-(5-fluoropyrimidin-2-yl)pyrrolidin-3-yl)amino)nicotinamide] are 5 nM and 440 nM.
In the same order, the values of `CC(C)Nc1cc(-c2cnc3cc(C#N)cnn23)ncc1C(=O)NCCCn1ccnc1` [Example 214, N-(3-(1H-imidazol-1-yl)propyl)-6-(7-cyanoimidazo[1,2-b]pyridazin-3-yl)-4-(isopropylamino)nicotinamide] are 11 nM and 480 nM.
On the same counts, the results for `Cn1cc(Nc2cc(-c3cnn4cc(Cl)cnc34)ncc2C(=O)N[C@H]2CC[C@H](C(C)(C)O)CC2)cn1` [Example 256, 6-(6-chloropyrazolo[1,5-a]pyrimidin-3-yl)-N-((1r,4r)-4-(2-hydroxypropan-2-yl)cyclohexyl)-4-((1-methyl-1H-pyrazol-4-yl)amino)nicotinamide] are 3 nM and 790 nM.
As to `[2H]C([2H])([2H])OC(C)(C)[C@H](F)CNC(=O)c1cnc(-c2cnn3cc(Cl)cnc23)cc1NC(C)C` [Example 57, (R)-6-(6-chloropyrazolo[1,5-a]pyrimidin-3-yl)-N-(2-fluoro-3-trideuteromethoxy-3-methylbutyl)-4-(isopropylamino)nicotinamide], the IC50 in test [1] stood at 3 nM. In addition, the response in test [2] (Homo sapiens) was half-maximal at 2340 nM (EC50).
On the same counts, the results for `CC(C)(O)[C@H](F)CNC(=O)c1cnc(-c2cnc3cc(Cl)cnn23)cc1NC1CC(F)(F)C1` [Example 206, (R)-6-(7-chioroimidazo[1,2-b]pyridazin-3-yl)-4-((3,3-difluorocyclobutyl)amino)-N-(2-fluoro-3-hydroxy-3-methylbutyl)nicotinamide] are 4 nM and 820 nM.
On the same counts, the results for `CC(C)(O)[C@H](F)CNC(=O)c1cnc(-c2cnn3cc(Cl)cnc23)cc1NC1COCC1(F)F` (single isomer, unassigned) [Example 18] are 8 nM and 1150 nM.
With `CC(C)OC1CC(Nc2cc(-c3cnn4cc(Cl)cnc34)ncc2C(=O)NC[C@@H](F)C(C)(C)O)CC1(F)F` (single isomer, unassigned) [Example 16], the half-maximal inhibitory concentration (IC50) in test [1] was 6 nM. For the same compound, it took 1090 nM to reach a half-maximal effect in test [2] (EC50).
Consider `CC(=O)N[C@H]1CC[C@H](NC(=O)c2cnc(-c3cnc4cc(C#N)cnn34)cc2NC(C)C)CC1` [Example 220, N-((1r,4r)-4-acetamidocyclohexyl)-6-(7-cyanoimidazo[1,2-b]pyridazin-3-yl)-4-(isopropylamino)nicotinamide], for which, in test [1], the IC50 was 16 nM. In addition, the EC50 (in general, the concentration giving half of the maximal effect) in test [2] (Homo sapiens) was 340 nM.
On the same counts, the results for `O=C(N[C@H]1CC[C@H](O)CC1)c1cnc(-c2cnn3cc(Cl)cnc23)cc1Nc1cnn(CC(F)F)c1` [Example 252, 6-(6-chloropyrazolo[1,5-a]pyrimidin-3-yl)-4-((1-(2,2-difluoroethyl)-1H-pyrazol-4-yl)amino)-N-((1r,4r)-4-hydroxycyclohexyl) nicotinamide] are 3 nM and 930 nM.
In the same order, the values of `CO[C@H]1CC[C@H](Nc2cc(-c3cnn4cc(Cl)cnc34)ncc2C(=O)NC[C@@H](F)C(C)(C)O)CC1` [Example 165, 6-(6-chloropyrazolo[1,5-a]pyrimidin-3-yl)-N—((R)-2-fluoro-3-hydroxy-3-methylbutyl)-4-(((1r,4R)-4-methoxycyclohexyl)amino)nicotinamide] are 6 nM and 470 nM.
With `CC(C)Nc1cc(-c2cnc3cccnn23)ncc1C(=O)NC[C@@H](F)C(C)(C)O` [Example 21, (R)—N-(2-fluoro-3-hydroxy-3-methylbutyl)-6-(imidazo[1,2-b]pyridazin-3-yl)-4-(isopropylamino)nicotinamide], in test [1], the IC50 turned out to be 7 nM. For the same compound, it took 2530 nM to reach a half-maximal effect in test [2] (EC50).
Regarding `CC(C)(O)[C@H](F)CNC(=O)c1cnc(-c2cnc3cc(C#N)cnn23)cc1Nc1cnn(CC(F)(F)F)c1` [Example 276, (R)-6-(7-cyanoimidazo[1,2-b]pyridazin-3-yl)-N-(2-fluoro-3-hydroxy-3-methylbutyl)-4-((1-(2,2,2-trifluoroethyl)-1H-pyrazol-4-yl)amino)nicotinamide], the IC50 in test [1] was determined as 2 nM. Also, in test [2] (Homo sapiens), the EC50 worked out at 80 nM.
On the same counts, the results for `CC(C)(CO)Nc1cc(-c2cnn3cc(Cl)cnc23)ncc1C(=O)NC[C@@H](F)C(C)(C)O` [Example 7, (R)-6-(6-chloropyrazolo[1,5-a]pyrimidin-3-yl)-N-(2-fluoro-3-hydroxy-3-methylbutyl)-4-((1-hydroxy-2-methylpropan-2-yl)amino)nicotinamide] are 2 nM and 570 nM.
In the same order, the values of `CC(C)(O)[C@H](F)CNC(=O)c1cnc(-c2cnn3cc(C#N)cnc23)cc1N[C@@H](CO)Cc1ccccc1` [Example 101, 6-(6-cyanopyrazolo[1,5-a]pyrimidin-3-yl)-N—((R)-2-fluoro-3-hydroxy-3-methylbutyl)-4-(((R)-1-hydroxy-3-phenylpropan-2-yl)amino)nicotinamide] are 7 nM and 1640 nM.
`CC(C)(O)[C@H](F)CNC(=O)c1cnc(-c2cnn3cc(Cl)cnc23)cc1NC1CCCOC1` (single isomer, unassigned) [Example 4]: the IC50 in test [1] amounted to 13 nM. This compound displayed an EC50 in test [2] of 680 nM.
Turning to `CC(C)(O)[C@H](F)CNC(=O)c1cnc(-c2cnc3cc(C#N)cnn23)cc1N[C@@H]1CCN(c2ncc(F)cn2)C1` [Example 288, 6-(7-cyanoimidazo[1,2-b]pyridazin-3-yl)-N—((R)-2-fluoro-3-hydroxy-3-methylbutyl)-4-(((R)-1-(5-fluoropyrimidin-2-yl)pyrrolidin-3-yl)amino)nicotinamide], in test [1], the IC50 came out at 9 nM. In test [2] (Homo sapiens), this compound gave an EC50 of 390 nM.
On the same counts, the results for `Cn1cc(Nc2cc(-c3cnc4cc(Cl)cnn34)ncc2C(=O)NC[C@@H](F)C(C)(C)O)cn1` [Example 271, (R)-6-(7-chloroimidazo[1,2-b]pyridazin-3-yl)-N-(2-fluoro-3-hydroxy-3-methylbutyl)-4-((1-methyl-1H-pyrazol-4-yl)amino)nicotinamide] are 4 nM and 170 nM.
On the same counts, the results for `CC(C)Nc1cc(-c2cnc3cc(C#N)cnn23)ncc1C(=O)NCCc1cccs1` [Example 213, 6-(7-cyanoimidazo[1,2-b]pyridazin-3-yl)-4-(isopropylamino)-N-(2-(thiophen-2-yl)ethyl)nicotinamide] are 2 nM and 890 nM.
For the compound `CC(C)Nc1cc(-c2cnn3cc(Cl)cnc23)ncc1C(=O)NCCCS(C)(=O)=O` [Example 168, 6-(6-chloropyrazolo[1,5-a]pyrimidin-3-yl)-4-(isopropylamino)-N-(3-(methylsulfonyl)propyl)nicotinamide], the IC50 in test [1] worked out at 16 nM. The EC50 in test [2] (Homo sapiens) came out at 760 nM.
On the same counts, the results for `CC(C)Nc1cc(-c2cnc3cc(C#N)cnn23)ncc1C(=O)NCC(F)(F)C(C)(C)O` [Example 173, 6-(7-cyanoimidazo[1,2-b]pyridazin-3-yl)-N-(2,2-difluoro-3-hydroxy-3-methylbutyl)-4-(isopropylamino)nicotinamide] are 6 nM and 830 nM.
In the same order, the values of `CO[C@H]1CC[C@H](Nc2cc(-c3cnc4cc(C#N)cnn34)ncc2C(=O)NC[C@@H](F)C(C)(C)O)CC1` [Example 196, 6-(7-cyanoimidazo[1,2-b]pyridazin-3-yl)-N—((R)-2-fluoro-3-hydroxy-3-methylbutyl)-4-(((1r,4R)-4-methoxycyclohexyl)amino) nicotinamide] are 6 nM and 640 nM.
Take `CC[C@@H](C)Nc1cc(-c2cnc3cc(Cl)cnn23)ncc1C(=O)NC[C@@H](F)C(C)(C)O` [Example 202, 4-(((R)-sec-butyl)amino)-6-(7-chloroimidazo[1,2-b]pyridazin-3-yl)-N—((R)-2-fluoro-3-hydroxy-3-methylbutyl)nicotinamide]: in test [1], the IC50 was found to be 2 nM. This compound also showed an EC50 in test [2] (Homo sapiens) of 750 nM.
In the same order, the values of `CC(F)(F)Cn1ccc(Nc2cc(-c3cnc4cc(C#N)cnn34)ncc2C(=O)NC[C@@H](F)C(C)(C)O)n1` [Example 268, (R)-6-(7-cyanoimidazo[1,2-b]pyridazin-3-yl)-4-((1-(2,2-difluoropropyl)-1H-pyrazol-3-yl)amino)-N-(2-fluoro-3-hydroxy-3-methylbutyl)nicotinamide] are 3 nM and 960 nM.
Turning to `CC(F)(F)Cn1cc(Nc2cc(-c3cnc4cc(C#N)cnn34)ncc2C(=O)NC[C@@H](F)C(C)(C)F)cn1` [Example 269, (R)-6-(7-cyanoimidazo[1,2-b]pyridazin-3-yl)-N-(2,3-difluoro-3-methylbutyl)-4-((1-(2,2-difluoropropyl)-1H-pyrazol-4-yl)amino)nicotinamide], the IC50 in test [1] turned out to be 2 nM. The same compound showed an EC50 in test [2] (Homo sapiens) of 560 nM.
On the same counts, the results for `CC(C)Nc1cc(-c2cnc3cc(C#N)cnn23)ncc1C(=O)NC1CCC(N(C)C)CC1` (stereo not shown) [Example 215, 6-(7-cyanoimidazo[1,2-b]pyridazin-3-yl)-N-(4-(dimethylamino)cyclohexyl)-4-(isopropylamino)nicotinamide] are 4 nM and 600 nM.
